# Columns and labels:
# LXR-LBD = experiment: differential scanning fluorimetry; assay type: binding
# From the text: The synthesis and characterization of KD-01-39, a derivative of 3A4, have not been described previously.
# MDA-MB-231 cells = experiment: breast cancer cell proliferation; assay type: cell-based
# From the text: The inhibitory effects of LXR ligands in breast cancer cells have been shown previously. […] The observed decreases in LXR protein levels were not affected by proteasome inhibitor MG132.
# KPC tumor cells = experiment: growth of KPC tumor cells from mouse model of PDAC; assay type: cell-based
# From the text: The effects of the ligands and derivatives on the growth of PDAC cells were further validated by cell counting and clonogenic assays.
# human PDAC cell lines = experiment: cell viability response curves with increasing concentrations; assay type: cell-based
# [1] = system: LXR target genes SREBF1c, ABCA1, and ABCG1; experiment: expression of LXR target genes in pancreatic cancer cell lines; assay type: cell-based, human
# From the text: To characterize the activity of the newly discovered ligands, the expression of LXR target genes SREBF1c, ABCA1, and ABCG1 was examined following treatment with vehicle, synthetic agonist GW3965, and Compounds 1E5 and 3A4. […] Basal expression of SREBF1c, the canonical LXR target gene involved in the regulation of glucose and lipid metabolism, was disrupted by the addition of novel LXR ligands, whereas their expression was induced following treatment with synthetic agonist GW3965 in all three pancreatic cancer cell lines tested, whereas the effects on ABCA1 and ABCG1 varied between the two novel ligands and across the cell lines.
# (§1) To elucidate mechanisms of inverse agonism by the novel ligands, TR-FRET experiments were conducted to determine the effects of 1E5 and 3A4 on the recruitment of NR co-activators and co-repressors. […] In addition to their functions as inverse agonists, extended treatments with 1E5 and 3A4 also destabilized or decreased LXR proteins.
# PDAC cells [2] = experiment: pro-apoptotic caspase cleavage analysis; assay type: cell-based, human
# Description: To determine if 1E5 and 3A4 can induce apoptosis, PDAC cells were treated with the LXR ligands and subjected to pro-apoptotic caspase cleavage analysis. […] Metabolomic profiling following treatments with the two ligands indicated the activation of two distinct cell death mechanisms. Ferroptosis is a non-apoptotic form of cell death which is characterized by accumulation of lipid peroxides by loss of glutathione peroxidase 4 (GPX4) activity. It can also be induced by accumulation of intracellular iron and depletion of reduced glutathione (GSH). GPX4 is an anti-oxidant enzyme involved in conversion of PUFA peroxides to PUFA alcohols. GSH is a critical cofactor of GPX4 and acts as a reducing agent to reduce the lipid peroxides. Therefore, direct inhibition of GPX4 activity or reduction in GSH levels trigger ferroptosis. The second mechanism of inducing ferroptosis is accumulation of polyunsaturated fatty acids (PUFAs) in cells. Studies have shown that PUFAs are the most susceptible lipids to peroxidation.
# Accumulation of C18 ceramides in the mitochondria leads to the recruitment of auto phagosomes in mitochondria and induces LC3-ceramide dependent lethal mitophagy. […] Darkened circles indicate increases and the size of the circle corresponds to the significance of changes.
# LXR proteins = molecular target: T1, LXR proteins (Homo sapiens, UniProt P55055); experiment: LXR protein levels after long-term treatment of pancreatic cancer cells; assay type: cell-based; details: long-term treatments
# T1 construct: expression of LXR proteins in different pancreatic cancer cell lines following long-term treatments; endogenous in cells; host or cells: pancreatic cancer cell lines (BxPC-3, MIA PaCa-2, PANC-1 named elsewhere)
# Description: as §1
# PDAC cells [3] = experiment: enzymatic assay of glutamate levels; assay type: cell-based, human
# Description: To further characterize the mechanisms of action of novel LXR modulators 1E5 and 3A4, metabolomic and transcriptomic analysis of pancreatic cancer cells were conducted in response to treatment. […] PDAC tumors have altered metabolism to support its growth and survival. Previous studies have reported that Kras upregulates the non-canonical use of glutamine to maintain NADPH/NADP+ ratio which in turn regulates redox homeostasis. This unconventional use of glutamine by PDAC cells fuel cancer cell proliferation and survival. Glutamine metabolism in PDAC has two unique functions: 1. Glutamine-derived Glutamate is used for glutathione (GSH) biosynthesis. 2. Glutamine facilitates generation of reducing equivalents in the form of NADPH. In PDAC mitochondria, glutamine is converted to glutamate by glutaminase enzyme (GLS1). This glutamine derived glutamate is conventionally converted to alpha-ketoglutarate by glutamate dehydrogenase (GLUD1) to fuel citric acid cycle. However, in PDAC cells glutamate is converted to aspartate in cytosol which is converted to malic acid and NADPH is produced during this process. This process is essential to maintain redox homeostasis in the tumor. However, this non-canonical use of glutamine is dispensable in non-malignant cells. […]
# T1 sequence (P55055 whole entry): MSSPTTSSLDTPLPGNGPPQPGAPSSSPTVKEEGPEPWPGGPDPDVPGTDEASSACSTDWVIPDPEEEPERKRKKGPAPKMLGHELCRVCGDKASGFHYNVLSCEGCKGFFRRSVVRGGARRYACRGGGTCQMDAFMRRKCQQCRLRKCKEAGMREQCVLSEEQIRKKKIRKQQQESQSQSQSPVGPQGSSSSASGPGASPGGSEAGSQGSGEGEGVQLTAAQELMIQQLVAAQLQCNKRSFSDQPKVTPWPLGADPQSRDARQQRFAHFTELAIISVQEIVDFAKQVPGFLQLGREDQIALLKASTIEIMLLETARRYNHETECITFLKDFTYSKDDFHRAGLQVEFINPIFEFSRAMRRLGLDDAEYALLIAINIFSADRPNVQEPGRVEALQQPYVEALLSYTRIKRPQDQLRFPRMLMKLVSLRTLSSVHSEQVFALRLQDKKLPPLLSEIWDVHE
smiles,measurement,setting,value
"O=c1cc(-c2ccccc2)nc(Nc2cccc(C(F)(F)F)c2)[nH]1 [Compound 1E5, 6-phenyl-2-{[3-(trifluoromethyl)phenyl]amino}-3,4-dihydropyrimidin-4-one]",LXR-LBD structure and dye dissociation with increasing temperature,LXR-LBD,disrupted the LBD structure
same,proliferation of MDA-MB-231 cells,MDA-MB-231 cells,inhibited
same,growth of KPC tumor cells,KPC tumor cells,blocked the growth
same,potency in response curves compared to GW3965,human PDAC cell lines,more potent activity as compared to GW3965
same,basal expression of SREBF1c,[1]; all three pancreatic cancer cell lines,disrupted
same,"expression of FASN, SCD, and ACC",[1]; pancreatic cancer cells,decreased the expression
same,expression of LXR target genes,[1]; three pancreatic cancer cell lines,reducing the expression of LXR target genes
same,pro-apoptotic caspase cleavage,PDAC cells [2],did not
same,LXR protein levels,LXR proteins,decreased LXR protein levels
same,"glutamate levels, combination treatment with BPTES",PDAC cells [3]; 1E5 plus glutaminase inhibitor BPTES,synergistic effects on reducing the glutamate levels
same,intracellular levels of glutamate,PDAC cells [3]; treated for 48 hours,significantly reduced

# Reference: US20220273658A1, “SMALL MOLECULE LIVER X RECEPTOR MODULATORS AND USES THEREOF” (University of Houston System, priority 2019, published 2022)
